Patent publication US8722578B2, “Spiroheterocyclic pyrrolidinedione herbicidal compositions” (Syngenta Participations AG, priority 2008, dated 2014)

Experiments:
[1] = tested on: Alopecurus myosuroides (ALOMY); test: Example B pre-emergence herbicidal activity, glasshouse pot test; format: in vivo; details: 312 h, first table (headed Post-Emergence, taken as pre-emergence), rate 1000 g/ha, evaluated after 13 days, read-out: ALOMY activity (100=total damage to plant; 0=no damage to plant)
Method: (§1) Seeds of a variety of test species are sown in standard soil in pots. After cultivation for one day (pre-emergence) or after 8 days cultivation (post-emergence) under controlled conditions in a glasshouse (at 24/16° C., day/night; 14 hours light; 65% humidity), the plants are sprayed with an aqueous spray solution derived from the formulation of the technical active ingredient in acetone/water (50:50) solution containing 0.5% Tween 20 (polyoxyethelyene sorbitan monolaurate, CAS RN 9005-64-5). The test plants are then grown in a glasshouse under controlled conditions in a glasshouse (at 24/16° C., day/night; 14 hours light; 65% humidity) and watered twice daily. After 13 days for pre and post-emergence, the test is evaluated (100=total damage to plant; 0=no damage to plant). Test Plants: Setaria faberi (SETFA), Alopecurus myosuroides (ALOMY), Echinochloa crus-galli (ECHCG), Avena fatua (AVEFA)

Avena fatua (AVEFA) [2] = test: as above; format: in vivo; details: 312 h, first table (headed Post-Emergence, taken as pre-emergence), rate 1000 g/ha, evaluated after 13 days, read-out: AVEFA activity (100=total damage to plant; 0=no damage to plant)
Method: as §1

[3] = tested on: Echinochloa crus-galli (ECHCG); test: as above; format: in vivo; details: 312 h, first table (headed Post-Emergence, taken as pre-emergence), rate 1000 g/ha, evaluated after 13 days, read-out: ECHCG activity (100=total damage to plant; 0=no damage to plant)
Method: as §1

Setaria faberi (SETFA) [4] = test: as above; format: in vivo; details: 312 h, first table (headed Post-Emergence, taken as pre-emergence), rate 1000 g/ha, evaluated after 13 days, read-out: SETFA activity (100=total damage to plant; 0=no damage to plant)
Method: as §1

[5] = tested on: Alopecurus myosuroides (ALOMY); test: Example B post-emergence herbicidal activity, glasshouse pot test; format: in vivo; details: 312 h, evaluated after 13 days, read-out: ALOMY post-emergence activity (100=total damage to plant; 0=no damage to plant); for pest or weed control at 1000 g/ha: rate 1000 g/ha; for pest or weed control at 250 g/ha: rate 250 g/ha
Method: as §1

Avena fatua (AVEFA) [6] = test: as above; format: in vivo; details: 312 h, evaluated after 13 days, read-out: AVEFA post-emergence activity (100=total damage to plant; 0=no damage to plant); for pest or weed control at 1000 g/ha: rate 1000 g/ha; for pest or weed control at 250 g/ha: rate 250 g/ha
Method: as §1

[7] = tested on: Echinochloa crus-galli (ECHCG); test: as above; format: in vivo; details: 312 h, evaluated after 13 days, read-out: ECHCG post-emergence activity (100=total damage to plant; 0=no damage to plant); for pest or weed control at 1000 g/ha: rate 1000 g/ha; for pest or weed control at 250 g/ha: rate 250 g/ha
Method: as §1

Setaria faberi (SETFA) [8] = test: as above; format: in vivo; details: 312 h, evaluated after 13 days, read-out: SETFA post-emergence activity (100=total damage to plant; 0=no damage to plant); for pest or weed control at 1000 g/ha: rate 1000 g/ha; for pest or weed control at 250 g/ha: rate 250 g/ha
Method: as §1

Structure (SMILES)	pest or weed control at 1000 g/ha [1]	pest or weed control at 1000 g/ha (Avena fatua (AVEFA) [2])	pest or weed control at 1000 g/ha [3]	pest or weed control at 1000 g/ha (Setaria faberi (SETFA) [4])	pest or weed control at 1000 g/ha [5]	pest or weed control at 1000 g/ha (Avena fatua (AVEFA) [6])	pest or weed control at 1000 g/ha [7]	pest or weed control at 1000 g/ha (Setaria faberi (SETFA) [8])	melting point	pest or weed control at 250 g/ha [5]	pest or weed control at 250 g/ha (Avena fatua (AVEFA) [6])	pest or weed control at 250 g/ha [7]	pest or weed control at 250 g/ha (Setaria faberi (SETFA) [8])
CCOC(=O)OC1=C(c2c(C)cc(C)cc2C)C(=O)NC12CCN(OCC)CC2 [Compound P22]	90%	90%	100%	90%	90%	60%	100%	70%	174 to 175 °C	–	–	–	–
CCON1CCC2(CC1)NC(=O)C(c1c(C)cc(C)cc1C)=C2OC(=O)C(C)(C)C [Compound P25, 2,2-dimethyl-propionic acid 8-ethoxy-2-oxo-3-(2,4,6-trimethyl-phenyl)-1,8-diaza-spiro[4.5]dec-3-en-4-yl ester]	60%	0%	80%	60%	50%	0%	40%	0%	–	–	–	–	–
COc1ccc(COC2=C(c3ccc(Cl)cc3Cl)C(=O)NC23CCN(OC)CC3)cc1 [Compound P32]	–	–	–	–	70%	60%	80%	90%	111 to 113 °C	–	–	–	–
CON1CCC2(CC1)NC(=O)C(c1cc(C)ccc1C)=C2OC(=O)C(C)C [Compound P34]	30%	40%	20%	20%	10%	0%	40%	60%	201 to 203 °C	–	–	–	–
CON1CCC2(CC1)NC(=O)C(c1ccc(Cl)cc1Cl)=C2OC(=O)N(C)CCC#N [Compound P39]	0%	0%	30%	60%	10%	0%	40%	50%	171 to 172 °C	–	–	–	–
C=CCOC(=O)OC1=C(c2c(Cl)cccc2Cl)C(=O)NC12CCN(OC)CC2 [Compound P44]	20%	10%	30%	30%	50%	0%	0%	50%	203 to 205 °C	–	–	–	–
C=CCOC(=O)OC1=C(c2c(C)cc(Br)cc2C)C(=O)NC12CCN(OC)CC2 [Compound P48]	100%	80%	80%	90%	80%	10%	80%	80%	207 to 211 °C	–	–	–	–
CCOC(=O)OC1=C(c2c(C)cc(Br)cc2C)C(=O)NC12CCN(OC)CC2 [Compound P49]	80%	80%	70%	80%	90%	80%	80%	80%	185 to 187 °C	–	–	–	–
CON1CCC2(CC1)NC(=O)C(c1cc(C3CC3)c(C)cc1C)=C2OC(=O)C(C)(C)C [Compound P56]	–	–	–	–	–	–	–	–	218 to 219 °C	20%	40%	50%	60%
CCOC(=O)OC1=C(c2ccc(Br)cc2C)C(=O)NC12CCN(OC)CC2 [Compound P68]	–	–	–	–	–	–	–	–	201 to 203 °C	70%	60%	90%	90%
CON1CCC2(CC1)NC(=O)C(c1c(C)cc(-c3ccc(Cl)cc3)cc1C)=C2OC(=O)C(C)(C)C [Compound P71]	–	–	–	–	–	–	–	–	> 250 °C	0%	20%	30%	60%
CON1CCC2(CC1)NC(=O)C(c1c(C)cc(C)cc1C)C2=O (centres unmarked) [Compound T4]	90%	100%	100%	90%	100%	90%	100%	100%	–	–	–	–	–
CCON1CCC2(CC1)NC(=O)C(c1c(C)cc(C)cc1C)C2=O (centres unmarked) [Compound T5]	100%	90%	100%	90%	90%	60%	100%	90%	–	–	–	–	–
CON1CCC2(CC1)NC(=O)C(c1cc(-c3ccc(Cl)cc3)c(C)cc1C)C2=O (centres unmarked) [Compound T15]	–	–	–	–	–	–	–	–	168 to 169 °C	60%	60%	90%	90%
CON1CCC2(CC1)NC(=O)C(c1ccc(Br)cc1Cl)C2=O (centres unmarked) [Compound T21]	–	–	–	–	–	–	–	–	167 to 169 °C	80%	60%	90%	80%
CON1CCC2(CC1)NC(=O)C(c1ccc(Br)cc1C)C2=O (centres unmarked) [Compound T22]	–	–	–	–	–	–	–	–	187 to 189 °C	60%	40%	80%	80%
